Series [1] has as its system multiple myeloma cell Kms12. Nature of the series: Growth inhibition of multiple myeloma cells, Cell Count-Reagent SF. As to conditions: 48 hours, 37° C., 5% CO2. The format is cell-based, human. On the procedure:
KMS-12 cells were incubated with thalidomide or 5HPP-33 (100 μM) for 48 hours at 37° C. in 5% CO2. For measurement of the number of the living cells, Cell Count-Reagent SF (Nacalai Tesque, Inc.) was added to culture media for 2 hours at the end of the 48 hours culture. The absorbance at 450 nm was measured.
Multiple myeloma cell Kms12 were cultured in RPMI Medium 1640 containing 10% FBS. For treatment with drugs, the medium was adjusted to contain 2×10^5 Kms12 cells/ml and dispensed in 2 ml Eppendorf tubes in 2 ml aliquots. As the stock solution, thalidomide or 5HPP-33 were dissolved in dimethylsulfoxide (DMSO) at concentration of 100 mM and […] respectively. The stock solution was added to the cell suspension at 2 μl/2 ml, followed by gentle and thorough inversion mixing. Cell mixture was dispensed in a 96 well plate at 100 μl/well and cultured at 37° C. and 5% CO2 for 48 hours. For measurement of the number of the living cells, Cell Count-Reagent SF (Nacalai Tesque, Inc.) was added to culture media and incubated for 2 hours. The absorbance at 450 nm, which is correlate to the number, were measured by GloMax-Multi+ Detection System (Promega KK) For preparation of a calibration curve, 1×10^6, 3×10^5 and 1×10^5 Kms12 cells/ml were used. Defining the number of cells treated with the solvent as 100, the number of cells treated with the drugs were expressed as relative values.

A further series concerns the target CRBN (Homo sapiens, UniProt Q96SW2). In words: Elution of CRBN from thalidomide-immobilized beads by test compound, Western blotting. The note with it: for CRBN eluted from thalidomide-immobilized beads by the compound: 293T cell extracts, buffer containing 0.1 to 1 mM compound, one hour, Western blotting; for bindability with CRBN: concluded from elution from thalidomide-immobilized beads. (In general: In western blotting, separated proteins are transferred to a membrane and probed.)

A further series concerns DDB1. In words: Elution of DDB1 from thalidomide-immobilized beads by test compound, Western blotting. As to conditions: Example 6; 293T extracts; elution with 1 mM compound.
In the next series the test system is fgf8a. Nature of the series: Whole-mount in situ hybridization of zebrafish fin buds. The format is in vivo. The note with it: AMO injected embryos. From the text:
(§1) To obtain a clue to the pathway(s) downstream of CRBN and thalidomide, the present inventors analyzed well-known key molecules in fin development. Sonic hedgehog (Shh) is expressed in the zone of polarizing activity (ZPA) and is responsible for anteroposterior patterning of the limb and fin (Cited Literature 27), whereas Fgf8 is expressed in the apical ectodermal ridge (AER) of the limb and fin and is necessary for outgrowth of the limb and fin along the proximodistal axis. […] Thus, an inhibitor of FGF8 production is a possible downstream target of thalidomide and the CRBN-containing E3 complex.
(§2) This assay was carried out in accordance with Cited Literature 41. Antisense probe for zcrbn mRNA was directed against the 5′-coding region of 513 bp. Antisense probe for zcul4a was directed against the 3′ untranslated region (3′ UTR) of 590 bp. Probes for shh and fgf8 were kindly provided by Dr. Krauss and Dr. Thisse, respectively. To increase permeability of probes, fixed embryos were incubated with PBS containing 0.1% Tween-20 and […] proteinase K for two minutes at room temperature.

Another series has as its system shh. Described as above. The format is in vivo. As to conditions: AMO injected embryos.
Source text: as §1, §2

A further series concerns zebrafish embryos. Nature of the series: Zebrafish embryo development, pectoral fins and otic vesicles. The format is in vivo, zebrafish (Danio rerio). The note with it: for fin and otic vesicle development: AMO injected into one cell stage embryos.

Entries after “also recorded” stand apart in the source; their conditions may differ.

Chain of CRBN (Q96SW2 whole entry): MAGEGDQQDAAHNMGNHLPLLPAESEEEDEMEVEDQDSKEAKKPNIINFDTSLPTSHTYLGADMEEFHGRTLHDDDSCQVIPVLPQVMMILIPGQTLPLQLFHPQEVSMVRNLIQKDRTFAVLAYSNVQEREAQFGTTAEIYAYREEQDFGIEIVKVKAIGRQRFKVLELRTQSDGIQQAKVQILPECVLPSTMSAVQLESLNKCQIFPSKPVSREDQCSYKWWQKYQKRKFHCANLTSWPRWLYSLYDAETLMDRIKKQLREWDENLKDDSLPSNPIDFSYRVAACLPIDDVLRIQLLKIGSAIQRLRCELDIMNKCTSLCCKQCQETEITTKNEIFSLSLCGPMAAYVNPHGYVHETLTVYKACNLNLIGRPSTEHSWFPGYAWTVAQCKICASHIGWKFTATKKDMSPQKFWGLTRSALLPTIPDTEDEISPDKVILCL
Method for CRBN: Firstly, thalidomide-immobilized FG beads are prepared. The immobilized beads are mixed and incubated with extracts of CRBN-expressing cells or recombinant proteins for one hour or longer in a rotator at 5 rpm and 4° C. Then, after the beads are washed with a buffer, for example, a buffer containing a thalidomide derivative as a test substance is passed through the beads to see whether CRBN is eluted. Examples of a detection method include Western blotting, dot blotting, CBB staining, and silver staining.

`CC(C)c1cccc(C(C)C)c1N1C(=O)c2ccc(O)cc2C1=O` [5HPP-33]: in series [1], the “proliferation of the multiple myeloma cell Kms12” value is recorded as “potent suppressive action; also recorded: potently suppressed; also recorded: growth inhibition”. In addition, at CRBN, the “CRBN eluted from thalidomide-immobilized beads by the compound” value is given as “very little CRBN was eluted; also recorded: not eluted”; the “bindability with CRBN” value was “low bindability and low and extremely low bindability”.

Take `O=C1NC(=O)c2ccccc21` [phthalimide]: on CRBN, the “CRBN eluted from thalidomide-immobilized beads by the compound” value is “very little CRBN was eluted; also recorded: not eluted” and the “bindability with CRBN” value is reported as “low bindability”. On CRBN (Example 6, 293T extracts, elution with 1 mM compound), the “CRBN in the eluate fraction” value is “not detected”. Besides, in the series with DDB1, the “DDB1 in the eluate fraction” value was “not detected”.

Take “zcrbn-AMO: antisense morpholino oligo for zcrbn, 5′-AGAGCTGTAGCTGGTTCCCCATTTC-3′ (SEQ ID NO: 5) (all phosphorodiamidate morpholino (PMO))”: the fgf8a expression result in the series with fgf8a is recorded as “reduced”. Moreover, in the series with shh, the shh expression entry was “no difference”. Further, the “fin and otic vesicle development” value in the series with zebrafish embryos is reported as “exhibited defects”. For the same compound, the “reduction of the size of otic vesicles compared to wild type” value in the series on zebrafish embryos (AMO-injected embryos at 27 hpf) amounted to 40%.

As to “zcul4a AMO: antisense morpholino oligo for zcul4a, 5′-CTGGTGCTGAACATCTTCTGCCATC-3′ (SEQ ID NO: 6) (all phosphorodiamidate morpholino (PMO))”, the fgf8a expression result with fgf8a is reported as “reduced”. Besides, the shh expression entry in the series on shh is “no difference”. The “fin and otic vesicle development” value with zebrafish embryos is on record as “caused defects”. Moreover, the “size of otic vesicles, of the control size” value in the series with zebrafish embryos (knockdown embryos at 27 hpf) was found to be 40%.

Values taken from patent publication US9217743B2, “Screening method utilizing thalidomide-targeting factor” (Tokyo Institute of Technology, priority 2009, dated 2015).
